Test results taken from patent EP0384421A2, “Use of PAF antagonists in the treatment of pathologic changes of the blood gas” (BOEHRINGER INGELHEIM KG, priority 1989, dated 1990).
Where “and” joins values, the source holds several entries; their conditions need not be identical. Equal values may be shown once.

Key:
Methylparathion = test system: Methylparathion; parameters: species or system Ratten; conditions: in vivo
Source text: Die Bestimmung der Partialdrucke der nachfolgend aufgeführten Blutgase sowie die Bestimmung des pH-Wertes des Blutes sind ein Indiz dafür, daß eine Behandlungsmethode bei Organophosphorvergiftungen positiv anspricht.
In der Tabelle I sind der pH-Wert und die Partialdrucke von CO₂ und O₂ aufgeführt. Die Ergebnisse sind Mittelwerte die aus Versuchen an 6 bis 15 Ratten je Experiment erhalten wurden. […] Die Konzentration von Atropin und Web 2086 ist in der Tabelle angegeben und bezieht sich auf mg/kg i.v. Die Reihenfolge der Applikation ist in Spalte 1 der Tabelle angegeben. Die Blutentnahme erfolgt 5 Minuten nach der letzten Substanzgabe. Die Blutgas-Messung erfolgte mit einem "Corning-Blood-Gas-Analyser 178".

PAF = assay: Acid-base balance and blood gases in arterial blood of rats after PAF and a PAF antagonist; format: in vivo, Ratten; conditions: for BE / HCO3 / O2sat / TCO2 / pCO2 / pO2 / ph: PAF 10 µg/kg i.v., rats; for pH-Wert-Erniedrigung: pH decrease caused by PAF 10 µg/kg i.v.
[1] = PAF antagonist 1000 ug/kg i.v., arterial blood
[2] = PAF antagonist 100 ug/kg i.v., arterial blood

## CN1C2CCC1CC(OC(=O)C(CO)c1ccccc1)C2 (racemic) [Atropin, reference compound]
Methylparathion
  pH: 7,43 and 7,21 and 6,97

## Cc1nnc2n1-c1sc(Br)cc1C(c1ccccc1Cl)=NC2 [Brotizolam, reference compound]
PAF; 10 mg/kg p.o.
  BE: -18,95
  HCO3: 7,88
  O2sat: 95,48
  TCO2: 8,57
  pCO2: 22,22
  pO2: 104,47
  ph: 7,17
PAF; 30 mg/kg p.o.
  BE: -3,32
  HCO3: 20,97
  O2sat: 94,43
  TCO2: 22,05
  pCO2: 35,53
  pO2: 87,42
  ph: 7,37
PAF; 100 mg/kg p.o.
  BE: -7,94
  HCO3: 16,38
  O2sat: 95,18
  TCO2: 17,34
  pCO2: 30,60
  pO2: 87,92
  ph: 7,33
PAF; 10,30 und 100 mg/kg p.o., same experimental set-up
  Blutgas-stabilisierende Wirkung: dosisabhängig
PAF; 30 und 100 mg/kg
  durch PAF-verursachte pH Wert-Verminderung: verhindert
PAF; 30 und 100 mg/kg, PAF-induced
  Abnahme des CO₂-Partialdruckes und Abnahme des Basenüberschusses: verhindert

## Cc1nnc2n1-c1sc3c(c1C(c1ccccc1Cl)=NC2)CC(CN1CCOCC1)C3 (centres unmarked) [STY 2108]
PAF; [1]
  BE: 0.42
  HCO3: 24.5
  O2sat: 96.8
  TCO2: 25.8
  pCO2: 39.5
  pO2: 90.4
  ph: 7.40
PAF
  pH-Wert-Erniedrigung: verhindert

## Cc1nnc2n1-c1sc(CCC(=O)N3CCOCC3)cc1C(c1ccccc1Cl)=NC2 [WEB 2086, 4-(2-Chlorphenyl)-9-methyl-2-[3-(4-morpholinyl)-3-propanon-1-yl]-6H-thieno[3,2-f][1,2,4]triazolo[4,3-a][1,4]diazepin]
PAF; [1]
  BE: -5.40
  HCO3: 19.8
  O2sat: 91.5
  TCO2: 20.9
  pCO2: 38.2
  pO2: 72.8
  ph: 7.32
PAF
  pH-Wert-Erniedrigung: verhindert
Methylparathion
  Blutgaswerte bei Phosphorsäureestervergiftungen: positiv beeinflußt
  PCO2: 73,0 and 58,9
  PO2: 51,7 and 61,9
  pH: 7,25 and 7,07

## Cc1nnc2n1-c1sc3c(c1C(c1ccccc1Cl)=NC2)CC(C(=O)N1CCOCC1)C3 (centres unmarked) [WEB 2170, 6-(2-Chlorphenyl)-8,9-dihydro-1-methyl-8-[(4-morpholinyl)carbonyl]-4H,7H-cyclopenta[4,5]thieno[3,2-f][1,2,4]triazolo[4,3-a][1,4]diazepin]
PAF; [2]
  BE: 0.18
  HCO3: 22.9
  O2sat: 97.1
  TCO2: 23.9
  pCO2: 33.8
  pO2: 89.8
  ph: 7.44
PAF
  pH-Wert-Erniedrigung: verhindert
